The values that follow come from patent EP0714662A1, “ANTIALLERGIC AGENT” (MEIJI MILK PRODUCTS COMPANY LIMITED, priority 1993, dated 1995).

Assay [1] relates to serum IgE from 15 patients suffering from mite rhinallergosis. In words: Enzyme antibody assay: binding of solid phase Der p II overlapping peptides to patients' serum IgE. The arrangement: species or system human. Conditions: serum from each of 15 patients. As to the method:
The complete primary structure of the amino acid sequence of a Der p II protein was determined after cDNA was isolated therefrom by Chua et al. (Int. Arch. Allergy Appl. Immunol. 91: 118-123, 1990). Based on the amino acid sequence, peptides were synthesized on a solid phase using a multipin system (manufactured by Chiron) and coupling reagents, Fmoc-amino acid and DCC (dicyclohexyl carbodiimide) (Geysen, H.M. et al., Proc. Natl. Acad. Sci. USA. 81:3998-4002, 1984). Sixty-one kinds of peptides were synthesized, the first peptide comprising the first through ninth amino acids of the N-terminal of Der p II, the second peptide comprising the third through eleventh amino acids of the N-terminal, and the third through 61st peptides being prepared in an analogous manner.
The RAST (radio-allergosorbent test, Pharmacia) values as determined using antigens from two mite species, Dermatophagoides pteronyssinus (Der p) and Dermatophagoides farina (D f), were class 4. Each of the above-mentioned 61 synthesized peptides and 100 µl of each patient's serum were placed in a 96-well plate and reacted overnight at room temperature. Synthesized peptides in a solid phase were washed three times to remove the patient's serum using a washing solution of 0.05% Tween 20/0.15 M NaCl/Tris-HCl (pH 7.5). 100 µl of galactosidase-labelled anti-human IgE antibodies (Pharmacia) were diluted to 40-fold using a 1:9 diluted Block-ace (product of Dainippon Seiyaku K.K.). The diluted solution was added to a 96-well plate, each synthesized solid phase peptide was also added, and reaction, was allowed to proceed overnight at room temperature. The synthesized solid phase peptide was washed with the same washing solution five times. Thereafter, to a 96-well black plate (manufactured by Dainippon Seiyaku K.K.), were added 200 µl of a solution of 0.1 mM 4-methylumbelliferyl-β-D-galactopyranoside in 0.1% bovine serum albumin/0.1 M NaCl/1 mM MgCl₂/0.1% sodium azide/10 mM phosphate buffer (pH 7.0). Subsequently, the synthesized solid phase peptide was added and reacted for 2 hours at 37°C. After completion of reaction, 100 µl of a reaction terminating solution (0.1 M glycin/NaOH, pH 10.3) were added to each well, and absorbance was measured using a fluorospectrophotometer for 96-well plates (Manufactured by Flow). This reaction was studied for each of 15 patients.

In assay [2] the test system is basophils artificially sensitized in a passive manner with serum IgEs from patients suffering from rhinallergosis caused by mites. In words: Passive histamine release (inhibition) test with passively sensitized basophils. The assay is classed as cell-based, human. As to the method: To 20 ml of heparinized venous blood, 5 ml of a 4.5% dextran solution were added and the mixture was allowed to stand for 30 to 60 minutes at room temperature. The upper leukocyte layer was extracted and subjected to a repetitive centrifugal operation. The leukocytes were then washed with PBS. To the leuokocytes in a precipitated fraction, 20 ml of a lactate buffer (pH 3.9, 4°C) were added and thoroughly mixed. After cooling the mixture on ice for 2 to 5 minutes, the pH was returned to neutral by adding PBS (25 ml). By this operation, IgEs on basophils were released. The leukocytes were washed well with PBS and suspended in 0.5% human albumin/PBS. 100 µl of cell suspension (approximately 2 x 10⁵ cells/well) were added to a V-bottom 96-well plate. Fifty µl of a pooled serum of patients suffering from rhinallergosis caused by mites were further added, and reaction was allowed to proceed for 1 hour at 37°C. This procedure caused serum IgEs from the patients suffering from rhinallergosis caused by mites to be bound to IgE receptors. Thus, basophils artificially sensitized in a passive manner with serum IgEs from patients suffering from rhinallergosis caused by mites can be obtained (Pruzansky J.J. et al., J. Immunol., 131; 1949-1953, 1983). The plate was centrifuged to remove 100 µl of a supernatant. 100 µl of a 0.5% human albumin/PBS were added to the residue and centrifuged again. The centrifugal operation was repeated twice, and the cells were then washed. 100 µl of a Der p II peptide (55-63) having a predetermined concentration of PBS were combined with 50 µl of an MBE (10 µg/50 µl) or PBS, and allowed to react for 30 minutes at 37°C. The plate was then centrifuged to collect 100 µl of a supernatant. The amount of histamine was determined using a histamine assay kit manufactured by Eiken Kagaku K.K.
Essentially, a histamine release test is performed to determine the amount of histamine released when an antigen solution (an allergen solution) is added to a sample of whole blood (fresh blood) from an allergic patient. […]

Assay [3] relates to pooled patients' serum IgE. Briefly: Binding inhibition assay: pooled patients' serum IgE to mite body extract (MBE). Conditions: peptide concentration of about 5 µg/ml - 5 mg/ml; pooled serum of 10 patients. The arrangement: species or system human. On the procedure: A crude mite body extract (MBE) was prepared from a mite, Dermatophagoides pteronyssinus (Der p), by homogenizing Der p mite bodies in 0.15 M NaCl/phosphate buffer (pH 7.3, PBS) using a Teflon homogenizer and centrifugally separating to collect the supernatant. A pooled serum IgE from patients was prepared by blending sera from 10 patients suffering from rhinallergosis caused by mites (RAST values with respect to Dermat ophagoides pteronyssinus: 3 or more). The peptide (Der p II 55-63) was synthesized by a Fmoc method using a peptide synthesizer pssm 8 manufactured by Shimadzu Corporation. The results of the synthesis were confirmed by an amino acid analysis and by an analysis of the primary structure. The MBE was added to each well of a 96-well black plate (Dainippon Seiyaku k.K.) so that the amount of protein contained was 1 µg/well (100 µl). The plate was allowed to stand overnight at 4°C. […] After completion of reaction, 100 µl of a reaction terminating liquid (0.1 M glycin/NaOH, pH 10.3) were added to each well, and absorbance was measured using a fluorospectrophotometer for 96-well plates (Manufactured by Flow). The absorbance in a control which was prepared by adding a PBS solution in place of the peptide was taken as 100%.

Ends that are not written are not given here.

Regarding KASIDGLEV [synthesized peptide No. 28], the “binding reactions with IgE antibodies” value in assay [1] was “exhibited binding reactions with IgE antibodies”. Further, the “suppression of histamine release caused by MBE” value is “could not suppress histamine release” in assay [2] (low peptide concentrations) and “about 90%” in assay [2] (peptide concentration 7.55 mg/ml, MBE 10 µg/50 µl). Also, in assay [2] (substance added alone to passively sensitized basophils), the histamine release result is given as “histamine was scarcely released”. Moreover, the “inhibition of binding of pooled patients' serum IgE to MBE” value in assay [3] stood at 20%.
